Experimental data from US20240238213A1 (New York University in Abu Dhabi Corporation, priority 2021, published 2024).

Experiments:
[1] = tested on: STZ-induced diabetic rats; experiment: In vivo hypoglycemic effect; parameters: species or system Wistar rats; settings: subcutaneous injection, 5 IU kg^−1
[2] = tested on: STZ-induced diabetic rats; experiment: In vivo oral glucose tolerance test (OGTT); parameters: species or system Wistar rats; settings: glucose 2.5 g·kg^−1 by gavage 3 hours after treatment, 280 minutes; SC 5 IU·kg^−1 or oral 50 IU·kg^−1
Hep-G2 cells = experiment: Insulin-FITC internalization in cells by confocal microscopy; assay type: cell-based, human; settings: 4 h incubation, [Insulin-FITC]=10 μM
R-HepG2 cells = experiment: Glucose consumption assay in insulin-resistant cells; assay type: cell-based, human; settings: R-HepG2, [Insulin]=10 μM
[3] = tested on: STZ-induced diabetic rats; settings: SC insulin 5 IU·kg^−1 or oral TTA-DFP-nCOF/Insulin 50 IU·kg^−1
[4] = tested on: STZ-induced diabetic rats; settings: rat, in vivo
[5] = tested on: non-everted mouse small intestine sac; settings: pure insulin; cited from earlier work

insulin
persistence of the blood glucose reduction [1]: the effect was not sustained
time to marked reduction of the blood glucose level [1]: ≤ 1 h
glycaemia in OGTT [2]: decreases severely the glucose plasma level the two first hours after the glucose gavage
intracellular insulin-FITC signal / localization (Hep-G2 cells): no detectable intracellular insulin-FITC signal
change of cellular glucose metabolism after 4 h (R-HepG2 cells; t=4 h): transient increase in cellular glucose metabolism
change of cellular glucose metabolism / insulin resistance after 24 h (R-HepG2 cells; t=24 h): statistically significant worsening
HOMA-IR [3]: 0.6 (0.3)
HOMA-IS [3]: 50.4 (11.0)
histopathology of liver and kidney [4]: commonly observed damages to the liver and kidney
histopathology of the kidney [4]: increase of the size of Bowman capsules, hypertrophy of the glomeruli and necrosis of the tubules
histopathology of the liver [4]: increase of big hepatocytes, a necrosis of hepatocytes and a narrowing in the sinusoids
Permeability (reported value) [5]: 8.02 μg·cm^−2
